According to patent US5264430A, “2-spirocyclopropyl cephalosporin sulfone derivatives” (SynPhar Laboratories, Inc., priority 1991, dated 1993):
Like-named read-outs stand apart in the source and are kept apart here.

Columns and labels:
[1] = target: T1, trypsin (Bos taurus, UniProt P00760); assay: Selectivity against various proteases: trypsin (TRY); type: biochemical, bovine
T1 construct: Purified trypsin from bovine pancreas; from tissue; host or cells: bovine pancreas
T1 sequence (P00760 24-246): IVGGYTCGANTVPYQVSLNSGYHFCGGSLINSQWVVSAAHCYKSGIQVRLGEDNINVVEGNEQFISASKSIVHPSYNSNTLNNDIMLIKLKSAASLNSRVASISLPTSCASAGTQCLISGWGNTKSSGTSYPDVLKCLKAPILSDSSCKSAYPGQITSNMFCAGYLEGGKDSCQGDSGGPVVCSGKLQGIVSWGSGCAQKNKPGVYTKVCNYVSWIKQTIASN

[2] = target: T2, thrombin (Homo sapiens, UniProt P00734); assay: Selectivity against various proteases: thrombin (THR); type: biochemical; settings: human plasma, pH 8.6, 22° C., 10 minute preincubation
T2 construct: Purified thrombin from human plasma; from tissue; host or cells: human plasma
Experimental: TRY = trypsin, THR = thrombin, PLM = plasmin, CTC = cathepsin C, APM =
Enzyme: Purified thrombin from human plasma
Substrate: Tosyl-glycyl-L-prolyl-L-arginine-p-NA acetate
50 mM Tricine-NaOH buffer (PH 8.6)
(§1) Except for Cathepsin D, the enzyme activities were determined by monitoring the increase in absorbance at 410 nm caused by the hydrolysis of chromogenic substrates. The activity of Cathepsin D was determined by monitoring the absorbance of 5% trichloroacetic acid-soluble material at 280 nm.
(§2) Inhibition of enzymes by the compounds described were determined after a 10 minute preincubation with enzymes in reaction mixtures minus substrate. Reactions were initiated by the addition of substrates. The concentration used for assays were porcine pancreatic elastase at 240 nM and human Cathepsin G at 50 nM. Cathepsin D was used at the concentration that produced approximately 0.15 O.D. increase per 20 min at 280 nm under the standard conditions. All other proteases were assayed at the concentrations that produced approximately 0.1 O.D. change per minute at 410 nm under the standard conditions.

[3] = target: T3, cathepsin C (Bos taurus, UniProt Q3ZCJ8); assay: Selectivity against various proteases: cathepsin C (CTC); type: biochemical, bovine
T3 construct: Purified cathepsin C from bovine spleen; from tissue; host or cells: bovine spleen

[4] = target: T4, aminopeptidase M (Sus scrofa, UniProt P15145); assay: Selectivity against various proteases: aminopeptidase M (APM); type: biochemical, porcine
T4 construct: Purified aminopeptidase M from porcine kidney; from tissue; host or cells: porcine kidney
T4 sequence (P15145 1-963): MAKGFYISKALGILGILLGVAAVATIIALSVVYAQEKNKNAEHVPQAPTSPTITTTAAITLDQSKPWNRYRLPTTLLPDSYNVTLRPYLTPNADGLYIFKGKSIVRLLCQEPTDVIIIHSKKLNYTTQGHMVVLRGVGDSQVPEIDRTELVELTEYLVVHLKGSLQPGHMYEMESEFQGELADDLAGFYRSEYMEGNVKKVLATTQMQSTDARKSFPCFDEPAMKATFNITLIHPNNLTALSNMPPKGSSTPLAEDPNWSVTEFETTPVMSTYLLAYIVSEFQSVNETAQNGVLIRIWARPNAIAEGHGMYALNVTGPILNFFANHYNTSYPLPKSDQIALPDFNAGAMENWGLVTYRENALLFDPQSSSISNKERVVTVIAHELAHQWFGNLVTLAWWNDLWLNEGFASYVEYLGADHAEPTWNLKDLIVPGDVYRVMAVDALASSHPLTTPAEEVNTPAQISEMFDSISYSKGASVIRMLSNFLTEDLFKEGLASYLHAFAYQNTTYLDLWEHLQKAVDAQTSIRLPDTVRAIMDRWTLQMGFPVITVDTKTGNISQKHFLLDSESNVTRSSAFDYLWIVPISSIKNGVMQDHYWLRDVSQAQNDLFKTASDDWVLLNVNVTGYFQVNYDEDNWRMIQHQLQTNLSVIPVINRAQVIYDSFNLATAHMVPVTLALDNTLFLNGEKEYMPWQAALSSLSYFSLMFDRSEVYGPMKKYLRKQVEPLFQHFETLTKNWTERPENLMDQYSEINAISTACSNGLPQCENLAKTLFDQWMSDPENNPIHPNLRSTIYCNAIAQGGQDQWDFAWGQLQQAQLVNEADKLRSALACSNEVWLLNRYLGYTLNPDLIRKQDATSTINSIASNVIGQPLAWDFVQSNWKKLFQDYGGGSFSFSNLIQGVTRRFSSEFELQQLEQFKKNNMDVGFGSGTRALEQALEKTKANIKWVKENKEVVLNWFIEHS

[5] = target: T5, cathepsin D (Bos taurus, UniProt P80209); assay: Selectivity against various proteases: cathepsin D (CTD); type: biochemical, bovine
T5 construct: Purified cathepsin D from bovine spleen; from tissue; host or cells: bovine spleen

[6] = target: T6, porcine pancreatic elastase (Sus scrofa, UniProt P00772); assay: Selectivity against various proteases: porcine pancreatic elastase (PPE); type: biochemical
T6 construct: Purified elastase from porcine pancreas; from tissue; host or cells: porcine pancreas
Experimental: Porcine Pancreatic Elastase (PPE)
Enzyme: Purified elastase from porcine pancreas
Substrate: MeO-succinyl-L-alanyl-L-alanyl-L-prolyl-L-valine-pNA
50 mM Tris[Tris(hydroxymethyl) aminomethane]. HCl buffer (pH 8.9)
as §1
as §2, with “The concentration used for assays were porcine pancreatic elastase at 240 nM and human Cathepsin G at 50 nM.” left out

[7] = target: T7, cathepsin G (Homo sapiens, UniProt P08311); assay: Selectivity against various proteases: cathepsin G (CTG); type: biochemical; settings: cathepsin G 50 nM, human white blood cells, pH 7.5, 30° C., 10 minute preincubation
T7 construct: Purified Cathepsin G from human white blood cells; from tissue; host or cells: human white blood cells
T7 sequence (P08311 21-244 limits assumed): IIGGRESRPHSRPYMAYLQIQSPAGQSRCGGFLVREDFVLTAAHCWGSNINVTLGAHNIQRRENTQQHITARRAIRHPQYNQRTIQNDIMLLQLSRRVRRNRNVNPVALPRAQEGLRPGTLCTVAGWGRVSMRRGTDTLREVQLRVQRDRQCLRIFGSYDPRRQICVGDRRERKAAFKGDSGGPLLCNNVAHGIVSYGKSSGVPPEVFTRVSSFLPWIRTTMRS
Experimental: as §2, with “Reaction mixture: […] 500 mM NaCl […] 2.0 mM Substrate Except for Cathepsin D, the enzyme activities were determined by monitoring the increase in absorbance at 410 nm caused by the hydrolysis of chromogenic substrates. The activity of Cathepsin D was determined by monitoring the absorbance of 5% trichloroacetic acid-soluble material at 280 nm. Inhibition” for “Inhibition”

[8] = cathepsin D, bovine spleen, pH 3.2, 30° C., 10 minute preincubation, read-out: CTD IC50 (converted)
[9] = porcine pancreatic elastase 240 nM, pH 8.9, 30° C., 10 minute preincubation, read-out: PPE IC50 (converted)
[10] = cathepsin C, bovine spleen, pH 5.4, 22° C., 10 minute preincubation, read-out: CTC IC50 (converted)
[11] = aminopeptidase M, porcine kidney, pH 7.5, 22° C., 10 minute preincubation, read-out: APM IC50 (converted)
[12] = trypsin, bovine pancreas, pH 8.8, 22° C., 10 minute preincubation, read-out: TRY IC50 (converted)

T6 sequence (P00772 27-266): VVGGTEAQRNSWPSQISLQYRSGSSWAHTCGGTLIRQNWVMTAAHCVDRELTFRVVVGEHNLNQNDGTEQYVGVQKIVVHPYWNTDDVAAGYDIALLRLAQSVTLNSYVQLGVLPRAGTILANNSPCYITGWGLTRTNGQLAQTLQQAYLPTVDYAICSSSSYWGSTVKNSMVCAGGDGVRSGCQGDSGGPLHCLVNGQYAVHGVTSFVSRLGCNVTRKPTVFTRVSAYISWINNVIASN
T3 sequence (Q3ZCJ8 231-394 limits assumed): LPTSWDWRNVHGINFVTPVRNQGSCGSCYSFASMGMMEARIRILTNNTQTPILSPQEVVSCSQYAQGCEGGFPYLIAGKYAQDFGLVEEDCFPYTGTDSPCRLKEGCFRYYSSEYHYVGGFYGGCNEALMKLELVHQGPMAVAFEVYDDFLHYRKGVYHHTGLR
T3 sequence (Q3ZCJ8 395-463 limits assumed): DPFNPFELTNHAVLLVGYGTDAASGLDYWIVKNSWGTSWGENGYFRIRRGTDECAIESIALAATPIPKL
T3 sequence (Q3ZCJ8 25-134 limits assumed): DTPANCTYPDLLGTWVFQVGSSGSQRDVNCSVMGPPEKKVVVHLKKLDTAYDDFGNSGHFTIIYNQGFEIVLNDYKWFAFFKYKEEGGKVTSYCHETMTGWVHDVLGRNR
T5 sequence (P80209 45-390): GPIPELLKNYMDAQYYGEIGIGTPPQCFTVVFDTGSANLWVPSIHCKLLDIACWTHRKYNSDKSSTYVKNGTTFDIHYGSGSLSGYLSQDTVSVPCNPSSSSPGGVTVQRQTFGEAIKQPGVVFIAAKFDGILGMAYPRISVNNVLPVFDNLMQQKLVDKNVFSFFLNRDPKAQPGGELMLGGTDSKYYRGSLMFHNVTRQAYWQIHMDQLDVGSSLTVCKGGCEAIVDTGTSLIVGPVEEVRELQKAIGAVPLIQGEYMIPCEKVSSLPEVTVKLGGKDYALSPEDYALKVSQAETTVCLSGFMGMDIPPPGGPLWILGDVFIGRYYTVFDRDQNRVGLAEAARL

Row | Structure (SMILES) | IC50 [1] [µM] | IC50 [2] [µM] | IC50 [3] [µM] | IC50 [4] [µM] | IC50 [5, 8] [µM] | IC50 [5] [µM] | IC50 [6, 9] [µM] | TRY IC50 ([1]; trypsin, bovine pancreas, pH 8.8, 22° C., 10 minute preincubation) [µg/mL] | IC50 [3, 10] [µM] | IC50 [4, 11] [µM] | IC50 [7] [µM] | IC50 [1, 12] [µM] | IC50 [6] [µM]
1 | CC1=C(C(=O)OC(c2ccccc2)c2ccccc2)N2C(=O)[C@H](Br)[C@H]2S(=O)(=O)C12CC2(C)c1ccccc1 (stereo partly drawn) [Example 13 (2), Benzhydryl 7α-bromo-2-spiro(2'-phenyl-2'-methyl) cyclopropyl-3-methyl-3-cephem-4-carboxylate-1,1-dioxide] |  | 40 | 40 | 40 | 50 |  |  | 0.089 |  |  |  |  | 
2 | CCOC(=O)C1CC12C(C)=C(C(=O)OC(c1ccccc1)c1ccccc1)N1C(=O)[C@H](Br)[C@H]1S2(=O)=O (stereo partly drawn) [Example 13 (1), Benzhydryl 7α-bromo-2-spiro(2'-ethoxycarbonyl)cyclo propyl-3-methyl-3-cephem-4-carboxylate-1,1-dioxide] |  | 40 | 40 | 40 |  |  |  |  |  |  |  |  | 
3 | CO[C@H]1C(=O)N2C(C(=O)N3CCCC3)=C(C)C3(CC3(c3ccccc3)c3ccccc3)S(=O)(=O)[C@H]12 (stereo partly drawn) [Example 10, 7-α-Methoxy-2-spiro (2',2'-diphenyl)cyclopropyl-3-methyl-3-cephem-4-pyrrolidine carboxamide-1,1-dioxide] | 40 | 40 |  | 40 | 9.99 |  | 0.0954 |  | 9.99 |  | 30.9 |  | 
4 | CC1=C(C(=O)OC(c2ccccc2)c2ccccc2)N2C(=O)[C@H](Br)[C@H]2S(=O)(=O)C12CC2(c1ccc(Cl)cc1)c1ccc(Cl)cc1 (single isomer, unassigned) [Example 12, Benzhydryl 7α-bromo-2-spiro [2',2'-(4',4'-dichloro)diphenyl]cyclopropyl-3-methyl-3-cephem-4-carboxylate-1,1-dioxide] |  | 55.3 | 55.3 | 55.3 | 46.2 |  |  |  |  |  |  |  | 
5 | CO[C@H]1C(=O)N2C(C(=O)N3CCCCC3)=C(C)C3(CC3(c3ccccc3)c3ccccc3)S(=O)(=O)[C@H]12 (stereo partly drawn) [Example 11, 7α-Methoxy-2-spiro (2',2'-diphenyl)cyclopropyl-3-methyl-3-cephem-4-piperidine carboxamide-1,1-dioxide] |  | 39.9 |  |  | 10 |  |  |  | 10 | 10 |  | 10 | 0.0316

More lines, main results first:

Row | IC50 [1] [µM] | IC50 [2] [µM] | IC50 [3] [µM] | IC50 [4] [µM] | IC50 [5, 8] [µM] | IC50 [5] [µM] | IC50 [6, 9] [µM] | TRY IC50 ([1]; trypsin, bovine pancreas, pH 8.8, 22° C., 10 minute preincubation) [µg/mL] | IC50 [3, 10] [µM] | IC50 [4, 11] [µM] | IC50 [7] [µM] | Structure (SMILES) | IC50 [1, 12] [µM] | IC50 [6] [µM]
6 | 40 | 40 | 40 | 40 | 50 |  |  |  |  |  |  | CC1=C(C(=O)OC(c2ccccc2)c2ccccc2)N2C(=O)[C@H](Br)[C@H]2S(=O)(=O)C12CC2(c1ccc(F)cc1)c1ccc(F)cc1 (single isomer, unassigned) [Example 13, Benzhydryl 7α-bromo-2-spiro[2',2'-(4',4'-difluoro)diphenyl] cyclopropyl-3-methyl-3-cephem-4-carboxylate-1,1-dioxide] |  | 
7 |  | 9.98 | 9.98 | 9.98 |  | 9.98 |  |  |  |  |  | CO[C@H]1C(=O)N2C(C(=O)OCC(Cl)(Cl)Cl)=C(C)C3(CC3(c3ccccc3)c3ccccc3)S(=O)(=O)[C@H]12 (stereo partly drawn) [Example 8, 2,2,2-Trichloroethyl-7α-methoxy-2-spiro(2',2'-diphenyl) cyclo-propyl-3-methyl-3-cephem-4-carboxylate-1,1-dioxide] |  | 
8 | 10 | 10 | 10 | 10 |  | 10 | 0.0578 |  |  |  |  | CO[C@H]1C(=O)N2C(C(=O)OC(c3ccccc3)c3ccccc3)=C(C)C3(CC3(c3ccccc3)c3ccccc3)S(=O)(=O)[C@H]12 (stereo partly drawn) [Example 9, Benzhydryl 7α-methoxy-2-spiro (2',2'-diphenyl) cyclopropyl-3-methyl-3-cephem-4-carboxylate-1,1-dioxide] |  | 
9 | 39 | 39 |  |  | 9.77 |  |  |  | 9.77 | 9.77 |  | CC1=C(C(=O)N2CCCC2)N2C(=O)[C@H](Br)[C@H]2S(=O)(=O)C12CC2(c1ccccc1)c1ccccc1 (stereo partly drawn) [Example 6, 7α Bromo-2-spiro(2',2'-diphenyl)cyclopropyl-3-methyl-3-cephem-4-pyrrolidine carboxamide-1,1-dioxide] |  | 
10 |  | 40 |  |  | 17.2 |  |  |  | 60 | 60 | 20 | CC1=C(C(=O)OC(c2ccccc2)c2ccccc2)N2C(=O)[C@H](Cl)[C@H]2S(=O)(=O)C12CC2(c1ccccc1)c1ccccc1 (single isomer, unassigned) [Example 1, Benzhydryl 7α-chloro-2-spiro(2',2'-diphenyl) cyclopropyl-3-methyl-3-cephem-4-carboxylate-1,1-dioxide] | 60 | 
